Reference: PMC12111632, “Expression, purification and preliminary pharmacological characterization of the Plasmodium falciparum membrane-bound pyrophosphatase type 1” (PLOS One, 2025)
Counter-ions that a name gives are not always drawn. Like-named read-outs stand apart in the source and are kept apart here.

Tests used:
[1] = target: PfPPase-VP1 (Plasmodium falciparum, UniProt Q8IKR1); experiment: biochemical
Experimental: The activity of PfPPase-VP1 was determined using a molybdenum blue colorimetric activity assay in 96-well plate format to measure the amount of phosphate production, as previously described for TmPPase but with modifications to pH (5.2–10) and temperature conditions (20–70°C) as described below. To determine the optimal pH for PfPPase-VP1 activity, 5 μL of 2.5 mg/mL total membrane protein was added to the reaction mixture (60 mM of various buffers (below) with pHs ranging from 5.2–10.0, 3 mM MgCl2, 100 mM KCl, and 10 mM NaCl, 100 mM NaF, 5 μM Gramicidin D), to a final volume of 40 μL. Buffers were trisodium-citrate (pH 5.2), MES (pH 6.5), Tris-HCl (pH 6.8, 7.5, 8.0, and 8.8) and glycine-NaOH (pH 10.0). A control sample was prepared by heating the membrane faction at 90 °C for 5 min to inactivate the enzyme. The reaction mixture was incubated at 30 °C for 5 min in a 96-well heating block. After incubation, 10 µl of 2 mM sodium pyrophosphate (PPi) was added, mixed, and incubated for 10 min. The reaction was stopped by adding 60 μL of premixed solution A (0.3 g ascorbic acid in 10 mL of 0.5 M cold HCl) and solution B (70 mg of ammonium heptamolybdate tetrahydrate in 1 mL of cold milli-Q water) and incubating on ice for 1 h. Finally, 90 μL sodium arsenite solution (5 g sodium arsenite, 5 g trisodium citrate dihydrate and 5 mL of iced-acetic acid in 250 mL milli-Q water) was added and incubated at RT for 30 min. Absorbance was measured at 860 nm on a MultiSkan Go UV/Vis spectrophotometer (Thermo Scientific). The specific activity of PfPPase-VP1 in the membrane was calculated using our previously published formula [23]. 60 mM Tris-Cl (pH 7.5) buffer was then selected for optimization of the reaction temperature (RT, 30 °C, 40 °C, 50 °C, 60 °C and 70 °C) by repeating the assay as described above. […] For the activity assay of purified PfPPase-VP1, 0.15 μg of the enzyme in the optimized detergent solution was mixed with 0.8 μL of 20 mg/mL liposomes (soybean lecithin) and then reaction buffer (60 mM Tris-HCl (pH 7.5), 3 mM MgCl2, 100 mM KCl, and 10 mM NaCl) was added to a total volume of 40 μL. The reaction mixture was preheated at 50 °C for 5 min before adding 10 µl of 2mM PPi and mixing. The catalytic reaction was run for 45 min at 50 °C, and the phosphate production was determined as described above. IDP, a known mPPase competitive inhibitor [35], was used as a positive control to validate the assay for inhibitor screening.
The 35 compounds used in this study were pre-dissolved in dimethyl sulfoxide (DMSO) at concentrations of 25–50 mM.
IDP was used in parallel as a positive control. Each concentration of the test compounds was tested in triplicate.

[2] = target: T1, TmPPase (Thermotoga maritima, UniProt Q9S5X0); experiment: TmPPase inhibition assay (96-well molybdenum blue colorimetric phosphate assay); type: biochemical; design: made in house
T1 sequence (Q9S5X0 1-726): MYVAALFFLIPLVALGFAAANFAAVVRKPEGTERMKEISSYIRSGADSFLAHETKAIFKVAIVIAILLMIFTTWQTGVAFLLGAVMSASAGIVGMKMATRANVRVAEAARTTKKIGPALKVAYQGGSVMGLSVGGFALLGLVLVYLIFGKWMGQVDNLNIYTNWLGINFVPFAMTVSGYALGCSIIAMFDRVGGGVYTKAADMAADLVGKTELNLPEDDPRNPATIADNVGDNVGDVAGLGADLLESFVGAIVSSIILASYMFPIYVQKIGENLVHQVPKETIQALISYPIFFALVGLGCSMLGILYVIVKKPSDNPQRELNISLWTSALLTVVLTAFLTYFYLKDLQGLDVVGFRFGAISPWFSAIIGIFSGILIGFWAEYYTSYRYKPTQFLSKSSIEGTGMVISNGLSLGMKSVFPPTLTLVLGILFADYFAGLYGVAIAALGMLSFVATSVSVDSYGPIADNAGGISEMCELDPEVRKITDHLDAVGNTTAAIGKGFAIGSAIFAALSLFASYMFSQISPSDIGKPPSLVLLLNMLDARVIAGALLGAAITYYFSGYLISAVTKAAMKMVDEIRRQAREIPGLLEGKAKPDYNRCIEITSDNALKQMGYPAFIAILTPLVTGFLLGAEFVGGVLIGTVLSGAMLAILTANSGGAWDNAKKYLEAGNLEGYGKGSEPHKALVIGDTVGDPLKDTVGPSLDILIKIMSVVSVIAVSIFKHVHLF

[3] = target: T1, TmPPase; design: made in house; host or cells: S. cerevisiae; conditions: cited from earlier work
[4] = purified PfPPase-VP1 reconstituted in liposomes, Tris-HCl pH 7.5, 50 °C, 45 min, triplicate, interval given
[5] = interval given, read-out: IC50 (TmPPase)

Chain of PfPPase-VP1 (Q8IKR1 entry or part of it): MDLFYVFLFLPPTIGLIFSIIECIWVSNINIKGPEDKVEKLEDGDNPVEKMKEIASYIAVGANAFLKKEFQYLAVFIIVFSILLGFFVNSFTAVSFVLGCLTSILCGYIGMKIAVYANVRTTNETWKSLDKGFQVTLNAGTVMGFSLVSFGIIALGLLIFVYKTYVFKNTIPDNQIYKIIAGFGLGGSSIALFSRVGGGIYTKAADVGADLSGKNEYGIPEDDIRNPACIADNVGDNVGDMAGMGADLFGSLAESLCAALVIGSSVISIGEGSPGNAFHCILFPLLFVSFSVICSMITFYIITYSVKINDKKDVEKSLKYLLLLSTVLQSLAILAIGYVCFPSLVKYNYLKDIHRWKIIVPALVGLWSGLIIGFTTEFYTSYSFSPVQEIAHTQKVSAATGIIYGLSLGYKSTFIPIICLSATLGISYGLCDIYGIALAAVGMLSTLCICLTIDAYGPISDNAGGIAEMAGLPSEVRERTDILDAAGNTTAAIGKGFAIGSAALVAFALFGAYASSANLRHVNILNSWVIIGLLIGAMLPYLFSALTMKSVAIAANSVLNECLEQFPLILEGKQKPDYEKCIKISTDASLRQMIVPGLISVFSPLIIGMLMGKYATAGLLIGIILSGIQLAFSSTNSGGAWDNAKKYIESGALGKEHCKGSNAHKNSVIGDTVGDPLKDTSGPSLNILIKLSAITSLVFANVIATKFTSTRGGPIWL

SMILES	IC50 (PfPPase, μM) [1, 4]	IC50 (TmPPase, μM) [2]	further results
[H]/N=C(\N/C(=N/[H])Nc1ccc(Cl)cc1)NC(C)C [Compound 6, Proguanil hydrochloride]	Inactive	Inactive	–
CCN(CCO)CCCC(C)Nc1ccnc2cc(Cl)ccc12 (stereo not drawn) [Compound 14, Hydroxychloroquine]	Inactive	Inactive	–
O=P(O)(O)NP(=O)(O)O [IDP, imidodiphosphate]	–	–	IC50 ([1]; purified PfPPase-VP1 reconstituted in liposomes, Tris-HCl pH 7.5, 50 °C, 45 min, triplicate, interval given, read-out: IC50 (PfPPase)): 175 µM
C[C@H]1c2cccc(O)c2C(=O)C2=C(O)[C@]3(O)C(=O)C(C(N)=O)=C(O)[C@@H](N(C)C)[C@@H]3[C@@H](O)[C@@H]21 [Compound 7, Doxycyline monohydrate]	Inactive	Inactive	–
Cc1cc(C)cc(-c2cc(C(=O)Oc3ccccc3Br)no2)c1 [Compound 17]	Inactive	–	IC50 [3, 5]: 6.7 µM
C=Cc1cc2nc(C(=O)Oc3ccccc3Br)cc(-c3cc(C)cc(C)c3)n2n1 [Compound 20]	–	–	IC50 ([3]; read-out: IC50 against TmPPase): < 20 µM
O=CN(O)CCCP(=O)(O)O [Compound 9, Fosmidomycin]	Inactive	Inactive	–
OC(c1cc(C(F)(F)F)nc2c(C(F)(F)F)cccc12)C1CCCCN1 (stereo not drawn) [Compound 5, Mefloquine hydrochloride]	–	Inactive	–
N=C(N)c1ccc(OCCCCCOc2ccc(C(=N)N)cc2)cc1 [Compound 3, Pentamidine isethionate]	–	Inactive	–
CCOC(=O)c1cc(-c2ccc(OC)c(S(=O)(=O)N3CCCSc4ccccc43)c2)on1 [Compound 15]	Inactive	–	–
CCN(CCO)CCCC(C)Nc1ccnc2cc(Cl)ccc12 (stereo not drawn) [Compound 13, Hydroxychloroquine sulfate]	Inactive	Inactive	–
CC(=O)N(O)CCCP(=O)(O)O [Compound 10, FR900098 (sodium salt)]	Inactive	Inactive	–
C=Cc1cc2nc(C(=O)O)cc(-c3cc(C)cc(C)c3)n2n1 [Compound 19]	–	–	IC50 ([3]; read-out: IC50 against TmPPase): < 20 µM
CC(C)(C)c1cc(-c2cc(C(=O)Oc3ccccc3Br)no2)cc(C(C)(C)C)c1 [Compound 18]	Inactive	–	IC50 [3, 5]: 10 µM
C[C@@H]1CC[C@H]2[C@@H](C)C(=O)O[C@@H]3O[C@@]4(C)CC[C@@H]1[C@]32OO4 [Compound 1, Artemisinin]	Inactive	Inactive	–
N=C(N)c1ccc(-c2ccc(-c3ccc(C(=N)N)cc3)o2)cc1 [Compound 2, Furamidine dihydrochloride]	–	Inactive	IC50 [1]: 190 µM
CCN(CC)CCCC(C)Nc1ccnc2cc(Cl)ccc12 (stereo not drawn) [Compound 11, Chloroquine]	Inactive	Inactive	–
O=C1C(O)=C([C@H]2CC[C@H](c3ccc(Cl)cc3)CC2)C(=O)c2ccccc21 [Compound 8, Atovaquone]	Inactive	Inactive	–
CCN(CC)CCCC(C)Nc1ccnc2cc(Cl)ccc12 (stereo not drawn) [Compound 12, Chloroquine diphospate salt]	Inactive	Inactive	–
CC1(C)N=C(N)N=C(N)N1c1ccc(Cl)cc1 [Compound 4, Cycloguanil hydrochloride]	Inactive	Inactive	–
COc1cc(C2c3c(-c4cc(Cl)c(C)cc4O)n[nH]c3C(=O)N2Cc2ccccc2)ccc1O (stereo not drawn) [Compound 16]	Inactive	–	IC50 [3, 5]: 33 µM
